Assay results: US10711011B2, “Substituted oxazolidines as anti-bacterial agents” (BUGWORKS RESEARCH, INC., priority 2016, dated 2020)
Converted amounts (≈) assume the structure as drawn.

Assays:
[1] = system: S. aureus ATCC 29213; assay: Minimum Inhibitory Concentration (MIC) in LB media; assay type: cell-based, Staphylococcus aureus; details: for MIC: Staphylococcus aureus, ATCC29213, LB Media
Source text: (§1) The compounds of Formula I are of interest due to their potent antibacterial effects. The ability of the invention compounds disclosed herein to achieve an antibacterial effect may be evaluated with regard to their ability to inhibit the growth of bacterial species like Escherichia coli ATCC 25922, Staphylococcus aureus ATCC 29213, Klebsiella pneumoniae ATCC 13883, Acinetobacter baumannii ATCC 19606, Pseudomonas aurigenosa ATCC 27853, Enterococcus faecalis ATCC 29212 and Enterococcus faecalis ATCC 29212 using an assay based on the following Minimum Inhibitory Concentration (MIC) protocol:
(§2) The test bacteria are grown in Luria Bertani Broth (HIMEDIA M1245), 25 grams of the powder is dissolved in 1000 ml distilled water and sterilized by autoclaving at 15 lbs pressure (121° C.) for 20 minutes. The medium sterility is checked by incubating at 37° C. for a period of 48 h.
(§3) Bacterial cultures that are stored as glycerol stocks at −80° C. are sub cultured on LB agar plates to obtain isolated colonies. A single colony of each strain is cultured in LB broth. The cultures are incubated at 37° C., 200 rpm till they reach an optical density (OD at 600 nm) of 0.8 to 1. […] Test compounds are dissolved in dimethyl sulfoxide (DMSO) to a stock concentration of 4 mg/ml. A twofold dilution series of this DMSO stock is prepared in a 96 well V bottom microtitre plate from rows A to H. A 3 μL volume of these dilutions are transferred to a 96-well flat bottom microtitre assay plate. Controls to monitor the effects of DMSO and media sterility are included. Each well is inoculated with 150 μL of the above diluted culture. The plates are incubated at 37° C. overnight in a humidified incubator. The following morning, the plates are read using a Spectrophotometer at 600 nm wavelength. […] The antibacterial activity (MIC) determined against representative Gram positive (S. aureus, E. faecalis) and Gram negative (E. coli, P. aurigenosa, K. pneumoniae and A. baumannii) pathogen were reported Table 1.

[2] = system: E. faecalis ATCC 29212; assay: Minimum Inhibitory Concentration (MIC) in LB media; assay type: cell-based, Enterococcus faecalis; details: Enterococcus faecalis, ATCC29212
Source text: as §1, §2, §3

[3] = system: E. coli ATCC 25922; assay: Minimum Inhibitory Concentration (MIC) in LB media; assay type: cell-based, Escherichia coli; details: Escherichia coli, ATCC25922, LB Media
Source text: as §1, §2, §3

[4] = system: P. aurigenosa ATCC 27853; assay: Minimum Inhibitory Concentration (MIC) in LB media; assay type: cell-based, Pseudomonas aurigenosa; details: Pseudomonas, ATCC27853, LB Media
Source text: as §1, §2, §3

[5] = system: K. pneumoniae ATCC 13883; assay: Minimum Inhibitory Concentration (MIC) in LB media; assay type: cell-based, Klebsiella pneumoniae; details: Klebsiella pneumoniae, ATCC13883, LB Media
Source text: as §1, §2, §3

[6] = system: A. baumannii ATCC 19606; assay: Minimum Inhibitory Concentration (MIC) in LB media; assay type: cell-based, Acinetobacter baumannii; details: for MIC: Acinetobacter baumannii, ATCC19606, LB Media
Source text: as §1, §2, §3

[7] = biological target: E. coli DNA gyrase (Escherichia coli, UniProt P0AES4+P0AES6); assay: biochemical; details: supercoiling assay
Sequence of E. coli DNA gyrase (P0AES4 whole entry, one chain of several): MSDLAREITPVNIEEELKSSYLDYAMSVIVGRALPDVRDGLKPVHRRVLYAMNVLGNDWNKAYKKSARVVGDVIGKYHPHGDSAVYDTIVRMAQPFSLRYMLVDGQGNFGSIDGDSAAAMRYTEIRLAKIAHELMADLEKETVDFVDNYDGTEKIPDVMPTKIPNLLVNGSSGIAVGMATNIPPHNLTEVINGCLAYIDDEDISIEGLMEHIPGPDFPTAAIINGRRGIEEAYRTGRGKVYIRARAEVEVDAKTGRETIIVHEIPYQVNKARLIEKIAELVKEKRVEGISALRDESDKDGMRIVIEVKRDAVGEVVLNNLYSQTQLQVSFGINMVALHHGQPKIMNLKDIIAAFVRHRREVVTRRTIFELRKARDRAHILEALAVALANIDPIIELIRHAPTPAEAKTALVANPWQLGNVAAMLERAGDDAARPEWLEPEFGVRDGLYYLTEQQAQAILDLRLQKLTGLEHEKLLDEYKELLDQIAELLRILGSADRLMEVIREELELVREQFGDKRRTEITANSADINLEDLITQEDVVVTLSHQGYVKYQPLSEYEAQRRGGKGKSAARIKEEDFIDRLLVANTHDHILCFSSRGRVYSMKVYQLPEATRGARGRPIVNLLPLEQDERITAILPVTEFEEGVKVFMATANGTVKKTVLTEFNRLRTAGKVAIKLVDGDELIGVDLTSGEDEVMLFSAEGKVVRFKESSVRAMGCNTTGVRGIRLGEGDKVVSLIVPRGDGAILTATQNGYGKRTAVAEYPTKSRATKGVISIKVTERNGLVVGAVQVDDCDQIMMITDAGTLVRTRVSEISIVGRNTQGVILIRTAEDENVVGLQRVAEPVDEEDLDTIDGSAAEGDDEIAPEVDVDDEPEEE

[8] = system: E. coli clinical strains; assay: MIC50 and MIC90 studies using clinical strains (CLSI guidelines); assay type: cell-based
[9] = system: A. baumannii (Aba) clinical strains; assay: as above; assay type: cell-based
[10] = system: K. pneumoniae (Kpn) clinical strains; assay: as above; assay type: cell-based
[11] = system: P. aurigenosa (Pae) clinical strains; assay: as above; assay type: cell-based
[12] = Escherichia coli, E. coli, 201 strains
[13] = Acinetobacter baumannii, Aba, 169 strains
[14] = Klebsiella pneumoniae, Kpn, 211 strains

SMILES | MIC [1] | MIC [2] | MIC [3] | MIC [4] | MIC [5] | MIC [6] | IC50 [7] | also measured
CN1C(=O)Cc2ncc(F)c(CNCCCC3CN(c4ccc5c(n4)NC(=O)CO5)C(=O)O3)c21 (stereo not drawn) [Example 17, 6-(5-(3-(((6-Fluoro-1-methyl-2-oxo-2,3-dihydro-1H-pyrrolo[3,2-b]pyridin-7-yl)methyl)amino)propyl)-2-oxooxazolidin-3-yl)-2H-pyrido[3,2-b][1,4]oxazin-3(4H)-one] | 1 mg/L (≈ 2.13 µM) | 4 mg/L (≈ 8.5 µM) | 1 mg/L (≈ 2.13 µM) | > 16 mg/L | 2 mg/L (≈ 4.25 µM) | 0.5 mg/L (≈ 1.06 µM) |  | 
CN1C(=O)Cc2cccc(CNCCC3CN(c4ccc5c(n4)NC(=O)CO5)C(=O)O3)c21 (stereo not drawn) [Example 1, 6-(5-(2-(((1-Methyl-2-oxoindolin-7-yl)methyl)amino)ethyl)-2-oxooxazolidin-3-yl)-2H-pyrido[3,2-b][1,4]oxazin-3(4H)-one] | 5 mg/L (≈ 11.4 µM) | 5 mg/L (≈ 11.4 µM) | 2.5 mg/L (≈ 5.71 µM) | 40 mg/L (≈ 91.4 µM) | 10 mg/L (≈ 22.9 µM) | 0.6 mg/L (≈ 1.37 µM) |  | 
CN1C(=O)Cc2ccc(F)c(CNCCC3CN(c4ccc5c(n4)NC(=O)CO5)C(=O)O3)c21 (stereo not drawn) [Example 2, 6-(5-(2-(((6-Fluoro-1-methyl-2-oxoindolin-7-yl)methyl)amino)ethyl)-2-oxooxazolidin-3-yl)-2H-pyrido[3,2-b][1,4]oxazin-3(4H)-on] | 0.6 mg/L (≈ 1.32 µM) | 1.25 mg/L (≈ 2.74 µM) | 1.25 mg/L (≈ 2.74 µM) | 10 mg/L (≈ 22 µM) | 2.5 mg/L (≈ 5.49 µM) | 0.3 mg/L (≈ 0.659 µM) | 0.36 µM | 
CN1C(=O)Cc2ccc(F)c(C(O)CNCCC3CN(c4ccc5c(n4)NC(=O)CO5)C(=O)O3)c21 (stereo not drawn) [Example 15, 6-(5-(2-((2-(6-fluoro-1-methyl-2-oxoindolin-7-yl)-2-hydroxyethyl)amino)ethyl)-2-oxooxazolidin-3-yl)-2H-pyrido[3,2-b][1,4]oxazin-3(4H)-one] | 1 mg/L (≈ 2.06 µM) | 2 mg/L (≈ 4.12 µM) | 1 mg/L (≈ 2.06 µM) | 2 mg/L (≈ 4.12 µM) | 2 mg/L (≈ 4.12 µM) | 4 mg/L (≈ 8.24 µM) | 0.135 µM | 
CN1C(=O)Cc2ccc(F)c(CNCCCC3CN(c4ccc5c(n4)NC(=O)CO5)C(=O)O3)c21 (single isomer, unassigned) [Example 9, 6-(5-(3-(((6-fluoro-1-methyl-2-oxoindolin-7-yl)methyl)amino)propyl)-2-oxooxazolidin-3-yl)-2H-pyrido[3,2-b][1,4]oxazin-3(4H)-one] |  | 0.5 mg/L (≈ 1.07 µM) | 0.25 mg/L (≈ 0.533 µM) | 2 mg/L (≈ 4.26 µM) | 0.5 mg/L (≈ 1.07 µM) |  | 0.089 µM | Minimum Inhibitory Concentration S. aureus ATCC 29213 ([1]; LB Media): 0.13 µg/mL; Minimum Inhibitory Concentration A. baumannii ATCC 19606 ([6]; LB Media): 0.125 µg/mL
C[C@@H](O)[C@H]1C(=O)N2C(C(=O)O)=C(S[C@@H]3CN[C@H](C(=O)N(C)C)C3)[C@H](C)[C@H]12 [Meropenem, reference compound] |  |  |  |  |  |  |  | MIC ATCC25922 ([8]; E. coli reference strain ATCC25922, no unit in this row (MIC50/MIC90 rows: μg/ml)): 0.06 mg/L (≈ 0.156 µM); Minimum (MIC) ([8]; E. coli, 201 strains, unit inferred): 0.03 mg/L; MIC50 [8, 12]: 0.06 mg/L (≈ 0.156 µM); MIC90 [8, 12]: 4 mg/L (≈ 10.4 µM); MIC ATCC19606 ([9]; Aba reference strain ATCC19606, unit inferred): 0.5 mg/L (≈ 1.3 µM); Minimum (MIC) ([9]; Aba, 169 strains, unit not given, in µg/mL): 0.03125; MIC50 [9, 13]: 8 mg/L (≈ 20.9 µM); MIC90 [9, 13]: 32 mg/L (≈ 83.4 µM); MIC50 [10, 14]: 1 mg/L (≈ 2.61 µM); MIC90 [10, 14]: 16 mg/L (≈ 41.7 µM); MIC ATCC13883 ([10]; Kpn reference strain ATCC13883, unit inferred): 0.06 mg/L (≈ 0.156 µM); Minimum (MIC) ([10]; Kpn, 211 strains, unit inferred): 0.03 mg/L; MIC ATCC27853 ([11]; Pae reference strain ATCC27853, unit inferred): 0.5 mg/L (≈ 1.3 µM); MIC50 ([11]; Pae, 215 strains): 2 mg/L (≈ 5.22 µM); MIC90 ([11]; Pae, 215 strains): 8 mg/L (≈ 20.9 µM); Minimum (MIC) ([11]; Pae, 215 strains, unit not given, in µg/mL): 0.03
CN1C(=O)Cc2ccc(F)c(CCNCCC3CN(c4ccc5c(n4)NC(=O)CO5)C(=O)O3)c21 (racemic) [Example 11, 6-(5-(2-((2-(6-fluoro-1-methyl-2-oxoindolin-7-yl)ethyl)amino)ethyl)-2-oxooxazolidin-3-yl)-2H-pyrido[3,2-b][1,4]oxazin-3(4H)-one] | 0.03 mg/L (≈ 0.0639 µM) | 0.13 mg/L (≈ 0.277 µM) | 0.06 mg/L (≈ 0.128 µM) | 0.5 mg/L (≈ 1.07 µM) | 0.125 mg/L (≈ 0.266 µM) | 0.03 mg/L (≈ 0.0639 µM) | 0.055 µM | 
CN1C(=O)C(C)(C)c2ccc(F)c(CNCCC3CN(c4ccc5c(n4)NC(=O)CO5)C(=O)O3)c21 (stereo not drawn) [Example 4, 6-(5-(2-(((6-fluoro-1,3,3-trimethyl-2-oxoindolin-7-yl)methyl)amino)ethyl)-2-oxooxazolidin-3-yl)-2H-pyrido[3,2-b][1,4]oxazin-3(4H)-one] | > 80 mg/L | > 80 mg/L | > 80 mg/L | > 80 mg/L | > 80 mg/L | > 80 mg/L | 14 µM | 
